Test results published in patent publication US20260138976A1 (Hoffmann-La Roche Inc., priority 2022, published 2026).

What was measured:
[1] = target: T1, DGKα (hDGKalpha(1-735)-N-His) (Homo sapiens, UniProt P23743); experiment: In vitro DGK inhibition assay, DGKalpha ADP Glo (in house); assay type: biochemical; details: 4 nM DGKα, 25 μM ATP, 125 uM DLG in liposomes, 1 hour reaction
T1 construct: hDGKalpha(1-735)-N-His; His (N); made in house; host or cells: Sf21 insect cells (baculovirus)
In short: (§1)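 Full-length His-tagged human DGKα (4 nM) or DGKζ (2 nM), expressed in Sf21 cells, phosphorylated 125 µM DLG in PS/PC liposomes with ATP at 25 µM (α) or 50 µM (ζ) for 1 h. ADP was measured by ADP-Glo luminescence. Compounds were tested as 11-point 1:3 series in 2% DMSO.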

primary human T-cells = experiment: IL2 secretion measurements (24 h, CD3-stimulated T-cells, PBS counter screen); assay type: cell-based; details: for Emax IL2 (% activation): CD3 condition, normalised to DMSO (neutral) and 20 μM reference compound A1 = 100%; for EC50: Homo sapiens, T-cell, CD3-stimulated primary human T-cells, IL2 secretion, fitted sigmoidal curve, read-out: Tcell IL2 CD3 EC50
In short: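 Expanded primary human T-cells (100k/well) were plated on anti-CD3-coated or PBS-only plates with compound in a 5–6 point dose response (top 20 or 10 μM final, 3.333-fold, 0.2% DMSO). IL-2 in 24 h supernatants was quantified by ProQuantum immunoassay or ELISA. Values were normalized to DMSO and 20 μM reference compound A1 (100%), giving EC50 and Emax.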

[2] = target: T2, DGKζ (hDGKzeta(1-928)-N-His) (Homo sapiens, UniProt Q13574); experiment: In vitro DGK inhibition assay, DGKzeta ADP Glo (in house); assay type: biochemical; details: 2 nM DGKζ, 50 μM ATP, 125 uM DLG in liposomes, 1 hour reaction
T2 construct: hDGKzeta(1-928)-N-His; His (N); made in house; host or cells: Sf21 insect cells (baculovirus)
In short: as §1

T2 sequence (Q13574 whole entry): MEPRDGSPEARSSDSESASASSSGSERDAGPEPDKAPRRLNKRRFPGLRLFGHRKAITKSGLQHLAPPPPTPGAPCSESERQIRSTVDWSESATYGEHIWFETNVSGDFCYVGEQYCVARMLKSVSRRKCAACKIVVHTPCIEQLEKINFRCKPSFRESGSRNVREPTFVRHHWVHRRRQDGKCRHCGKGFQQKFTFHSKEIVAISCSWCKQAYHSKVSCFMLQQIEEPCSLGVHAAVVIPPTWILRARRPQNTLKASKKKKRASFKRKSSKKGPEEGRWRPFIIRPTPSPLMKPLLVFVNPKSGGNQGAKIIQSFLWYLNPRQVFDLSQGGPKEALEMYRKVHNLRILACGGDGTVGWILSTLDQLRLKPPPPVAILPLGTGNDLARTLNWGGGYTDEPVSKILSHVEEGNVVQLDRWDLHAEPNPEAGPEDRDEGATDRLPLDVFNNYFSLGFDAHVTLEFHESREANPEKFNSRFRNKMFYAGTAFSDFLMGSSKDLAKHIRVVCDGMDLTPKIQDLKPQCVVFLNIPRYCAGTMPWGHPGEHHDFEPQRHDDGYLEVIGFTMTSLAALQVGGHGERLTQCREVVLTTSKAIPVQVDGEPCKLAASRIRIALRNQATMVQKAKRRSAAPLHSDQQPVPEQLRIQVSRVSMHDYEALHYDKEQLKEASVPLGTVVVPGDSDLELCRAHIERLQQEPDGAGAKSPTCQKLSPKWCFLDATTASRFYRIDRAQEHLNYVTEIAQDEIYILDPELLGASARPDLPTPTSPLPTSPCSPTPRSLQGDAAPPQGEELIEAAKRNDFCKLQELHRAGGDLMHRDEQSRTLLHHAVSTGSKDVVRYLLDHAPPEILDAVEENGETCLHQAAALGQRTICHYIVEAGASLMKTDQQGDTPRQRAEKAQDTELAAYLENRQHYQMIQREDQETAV
T1 sequence (P23743 whole entry): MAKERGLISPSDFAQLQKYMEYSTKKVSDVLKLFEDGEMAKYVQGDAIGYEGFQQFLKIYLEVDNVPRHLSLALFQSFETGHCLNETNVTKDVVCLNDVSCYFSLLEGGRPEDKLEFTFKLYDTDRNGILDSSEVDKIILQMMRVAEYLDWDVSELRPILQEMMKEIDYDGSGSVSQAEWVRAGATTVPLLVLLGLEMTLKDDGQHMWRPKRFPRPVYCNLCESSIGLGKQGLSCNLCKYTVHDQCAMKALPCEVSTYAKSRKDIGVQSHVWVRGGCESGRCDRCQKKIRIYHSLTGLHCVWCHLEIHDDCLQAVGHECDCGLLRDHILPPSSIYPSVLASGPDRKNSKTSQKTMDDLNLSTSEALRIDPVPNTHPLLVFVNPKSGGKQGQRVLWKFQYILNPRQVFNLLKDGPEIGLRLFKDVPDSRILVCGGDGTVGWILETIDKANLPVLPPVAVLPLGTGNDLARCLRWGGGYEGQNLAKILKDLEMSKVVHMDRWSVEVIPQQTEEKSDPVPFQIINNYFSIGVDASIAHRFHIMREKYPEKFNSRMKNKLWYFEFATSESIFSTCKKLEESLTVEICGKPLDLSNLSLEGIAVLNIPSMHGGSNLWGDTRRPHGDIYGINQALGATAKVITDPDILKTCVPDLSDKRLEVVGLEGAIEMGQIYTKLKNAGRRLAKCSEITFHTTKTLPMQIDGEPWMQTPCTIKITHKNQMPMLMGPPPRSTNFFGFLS

Compound | IC50 [1] [µM] | IC50 [2] [µM] | Emax IL2 (% activation) (primary human T-cells) | EC50 (primary human T-cells) [µM]
C[C@](N)(c1nnc(-c2ccc3c(c2)N(Cc2ccc(-c4noc(C(F)(F)F)n4)cc2)C(=O)[C@@H](N)CS3(=O)=O)o1)C(F)(F)F [Example 53, (3R)-3-amino-7-[5-[(1S)-1-amino-2,2,2-trifluoro-1-methyl-ethyl]-1,3,4-oxadiazol-2-yl]-1,1-dioxo-5-[[4-[5-(trifluoromethyl)-1,2,4-oxadiazol-3-yl]phenyl]methyl]-2,3-dihydro-1λ^6,5-benzothiazepin-4-one] | 43.4 | 2.42 | 187 | 2.07
N[C@H]1CS(=O)(=O)c2ccc(-c3nnc(C4(CO)CCCO4)o3)cc2N(Cc2ccc(-c3ccc(C(F)(F)F)cc3)cc2)C1=O (stereo partly drawn) [Example 55] | > 62.5 | 20.3 | 74 | 3.11
COC(=O)N1CC2CC(c3nnc(-c4ccc5c(c4)N(Cc4ccc(-c6ccc(OC)cc6)cc4)C(=O)[C@@H](N)CS5(=O)=O)o3)(C2)C1 [Example 59, methyl 1-[5-[(3R)-3-amino-5-[[4-(4-methoxyphenyl)phenyl]methyl]-1,1,4-trioxo-2,3-dihydro-1λ^6,5-benzothiazepin-7-yl]-1,3,4-oxadiazol-2-yl]-3-azabicyclo[3.1.1]heptane-3-carboxylate] | 3.04 | 1.14 | 175 | 0.596
COC(=O)N1CC2CC(c3nnc(-c4ccc5c(c4)N(Cc4ccc(-c6ccc(C(F)(F)F)cc6)cc4)C(=O)[C@@H](N)CS5(=O)=O)o3)(C2)C1 [Example 60, methyl 1-[5-[(3R)-3-amino-1,1,4-trioxo-5-[[4-[4-(trifluoromethyl)phenyl]phenyl]methyl]-2,3-dihydro-1λ^6,5-benzothiazepin-7-yl]-1,3,4-oxadiazol-2-yl]-3-azabicyclo[3.1.1]heptane-3-carboxylate] | 3.63 | 3.08 | 163 | 0.424
CC1(Nc2nnc(-c3ccc4c(c3)N(Cc3ccc(-c5noc(C(F)(F)F)n5)cc3)C(=O)[C@@H](N)CS4(=O)=O)o2)CC(F)(F)C1 [Example 72, (3R)-3-amino-7-[5-[(3,3-difluoro-1-methyl-cyclobutyl)amino]-1,3,4-oxadiazol-2-yl]-1,1-dioxo-5-[[4-[5-(trifluoromethyl)-1,2,4-oxadiazol-3-yl]phenyl]methyl]-2,3-dihydro-1λ^6,5-benzothiazepin-4-one] | > 62.5 | 20.9 | 238 | 3.28
N[C@H]1CS(=O)(=O)c2ccc(-c3nnc(N4CCOC(C(F)(F)F)C4)o3)cc2N(Cc2ccc(-c3ccc(C(F)(F)F)cc3)cc2)C1=O (stereo partly drawn) [Example 73, (3R)-3-amino-1,1-dioxo-7-[5-[2-(trifluoromethyl)morpholin-4-yl]-1,3,4-oxadiazol-2-yl]-5-[[4-[4-(trifluoromethyl)phenyl]phenyl]methyl]-2,3-dihydro-1λ^6,5-benzothiazepin-4-one] | > 62.5 | 13.6 | 116 | 2.53
N[C@H]1CS(=O)(=O)c2ccc(-c3nnc(N4CCOC(C(F)(F)F)C4)o3)cc2N(Cc2ccc(-c3ccc(C(F)(F)F)cn3)cc2)C1=O (stereo partly drawn) [Example 75, (3R)-3-amino-1,1-dioxo-7-[5-[2-(trifluoromethyl)morpholin-4-yl]-1,3,4-oxadiazol-2-yl]-5-[[4-[5-(trifluoromethyl)-2-pyridyl]phenyl]methyl]-2,3-dihydro-1λ^6,5-benzothiazepin-4-one] | 45.7 | 2.68 | 140 | 2.55
N[C@H]1CS(=O)(=O)c2ccc(-c3nnc(N4CCOC5(CC5)C4)o3)cc2N(Cc2ccc(-c3noc(C(F)(F)F)n3)cc2)C1=O [Example 77] | 48.2 | 1.53 | 170 | 3.45
N[C@H]1CS(=O)(=O)c2ccc(-c3nnc(N4CCOC(F)(F)C4)o3)cc2N(Cc2ccc(-c3noc(C(F)(F)F)n3)cc2)C1=O [Example 78, (3R)-3-amino-7-[5-(2,2-difluoromorpholin-4-yl)-1,3,4-oxadiazol-2-yl]-1,1-dioxo-5-[[4-[5-(trifluoromethyl)-1,2,4-oxadiazol-3-yl]phenyl]methyl]-2,3-dihydro-1λ^6,5-benzothiazepin-4-one] | 43.3 | 2.53 | 216 | 2.34
COc1ccc(-c2ccc(CN3C(=O)[C@@H](N)CS(=O)(=O)c4ccc(-c5nnc(N6CCOC(F)(F)C6)o5)cc43)cc2)cc1 [Example 79, (3R)-3-amino-7-[5-(2,2-difluoromorpholin-4-yl)-1,3,4-oxadiazol-2-yl]-5-[[4-(4-methoxyphenyl)phenyl]methyl]-1,1-dioxo-2,3-dihydro-1λ^6,5-benzothiazepin-4-one] | 39.7 | 0.88 | 236 | 2.45
N[C@H]1CS(=O)(=O)c2ccc(-c3noc(C4(N)COC4)n3)cc2N(Cc2ccc(-c3noc(C(F)(F)F)n3)cc2)C1=O [Example 84, (3R)-3-amino-7-[5-(3-aminooxetan-3-yl)-1,2,4-oxadiazol-3-yl]-1,1-dioxo-5-[[4-[5-(trifluoromethyl)-1,2,4-oxadiazol-3-yl]phenyl]methyl]-2,3-dihydro-1lambda6,5-benzothiazepin-4-one] | > 62.5 | 3.07 | 33 | > 10
N[C@H]1CS(=O)(=O)c2ccc(-c3noc(-c4cccnc4Cl)n3)cc2N(Cc2ccc(-c3noc(C4CC4)n3)cc2)C1=O [Example 85, (3R)-3-amino-7-[5-(2-chloro-3-pyridyl)-1,2,4-oxadiazol-3-yl]-5-[[4-(5-cyclopropyl-1,2,4-oxadiazol-3-yl)phenyl]methyl]-1,1-dioxo-2,3-dihydro-1λ^6,5-benzothiazepin-4-one] | > 62.5 | 2.1 | 4 | > 10

Continued, in another order:

IC50 [1] [µM] | IC50 [2] [µM] | Compound | Emax IL2 (% activation) (primary human T-cells) | EC50 (primary human T-cells) [µM]
33.7 | 1.72 | COc1ccc(-c2ccc(CN3C(=O)[C@@H](N)CS(=O)(=O)c4ccc(-c5nnc(C6(CO)CCCO6)o5)cc43)cc2)cc1 (stereo partly drawn) [Example 63, (3R)-3-amino-7-[5-[2-(hydroxymethyl)tetrahydrofuran-2-yl]-1,3,4-oxadiazol-2-yl]-5-[[4-(4-methoxyphenyl)phenyl]methyl]-1,1-dioxo-2,3-dihydro-1λ^6,5-benzothiazepin-4-one] | 78 | 2.41
2.49 | 6.44 | COC(F)(c1nnc(-c2ccc3c(c2)N(Cc2ccc(-c4nnc(C5CC5)o4)cc2)C(=O)[C@@H](N)CS3(=O)=O)o1)C(F)(F)F (stereo partly drawn) [Example 65] | 92 | 1.42
24.7 | 0.895 | N[C@H]1CS(=O)(=O)c2ccc(-c3nnc(N4CCC(F)(F)CC4)o3)cc2N(Cc2ccc(-c3nnc(C(F)(F)F)o3)cc2)C1=O [Example 71, (3R)-3-amino-7-[5-(4,4-difluoro-1-piperidyl)-1,3,4-oxadiazol-2-yl]-1,1-dioxo-5-[[4-[5-(trifluoromethyl)-1,3,4-oxadiazol-2-yl]phenyl]methyl]-2,3-dihydro-1λ^6,5-benzothiazepin-4-one] | 111 | 3.26
3.66 | 0.77 | N[C@H]1CS(=O)(=O)c2ccc(-c3nnc(N4CCOC(C(F)(F)F)C4)o3)cc2N(Cc2ccc(-c3noc(C(F)(F)F)n3)cc2)C1=O (stereo partly drawn) [Example 74, (3R)-3-amino-1,1-dioxo-7-[5-[2-(trifluoromethyl)morpholin-4-yl]-1,3,4-oxadiazol-2-yl]-5-[[4-[5-(trifluoromethyl)-1,2,4-oxadiazol-3-yl]phenyl]methyl]-2,3-dihydro-1λ^6,5-benzothiazepin-4-one] | 206 | 1.46
26.1 | 1.08 | COc1ccc(-c2ccc(CN3C(=O)[C@@H](N)CS(=O)(=O)c4ccc(-c5nnc(N6CCC(F)(F)C6)o5)cc43)cc2)cc1 [Example 76, (3R)-3-amino-7-[5-(3,3-difluoropyrrolidin-1-yl)-1,3,4-oxadiazol-2-yl]-5-[[4-(4-methoxyphenyl)phenyl]methyl]-1,1-dioxo-2,3-dihydro-1λ^6,5-benzothiazepin-4-one] | 297 | 2.64
38.9 | 2.45 | COc1ccc(-c2ccc(CN3C(=O)[C@@H](N)CS(=O)(=O)c4ccc(-c5nnc(N(C)CC(F)(F)F)o5)cc43)cc2)cc1 [Example 81, (3R)-3-amino-5-[[4-(4-methoxyphenyl)phenyl]methyl]-7-[5-[methyl(2,2,2-trifluoroethyl)amino]-1,3,4-oxadiazol-2-yl]-1,1-dioxo-2,3-dihydro-1λ^6,5-benzothiazepin-4-one] | 66 | 0.523
